Data as given in ChEMBL document CHEMBL5316318, “Structural Modification and Pharmacological Evaluation of Substituted Quinoline-5,8-diones as Potent NSD2 Inhibitors” (J Med Chem, 2023).
Activity calls are given as the source filed them. No cut-off for these calls is given here.

Legend:
[1] = Apparent permeability coefficient, Papp in MDCK cells; assay type: ADME, cell-based, Canis lupus familiaris; settings: dog
[2] = Half life in ICR mouse at 3 mg/kg, po measured for 24 hrs by LC-MS/MS analysis; assay type: ADME, organism-based; settings: in vivo
[3] = biological target: Basement membrane-specific heparan sulfate proteoglycan core protein (Homo sapiens) (UniProt P98160); assay: Inhibition of HSPG2 transcriptional activation in human KMS-11 cells assessed as reduction in HSPG2 mRNA expression at 0.5 uM by qRT-PCR analysis; assay type: cell-based
KMS-11 [4] = assay: Induction of apoptosis in human KMS-11 cells assessed as downregulation of BCL-XL protein expression at 0.2 to 0.8 uM by Western blot analysis; assay type: functional, cell-based; settings: dose 0.2-0.8 µM
[5] = Toxicity in SCID mouse xenografted with human KMS-11 cells assessed as adverse effects at 75 to 150 mg/kg, po administered daily for 21 days and measured every 3 days; assay type: organism-based; settings: in vivo, 504 h, dose 75-150 mg/kg, time 21 day
[6] = biological target: Histone-lysine N-methyltransferase 2D (Homo sapiens, UniProt O14686); assay: Inhibition of MLL2 (unknown origin) using SAM as substrate preincubated for 10 mins followed by substrate addition and measured after 4 hrs by HTRF analysis
[7] = Toxicity in SCID mouse xenografted with human KMS-11 cells assessed as body weight loss at 75 to 150 mg/kg, po administered daily for 21 days and measured every 3 days; assay type: organism-based; settings: in vivo, 504 h, dose 75-150 mg/kg, time 21 day
KMS-11 [8] = assay: Induction of apoptosis in human KMS-11 cells assessed as upregulation of BID protein expression at 0.2 to 0.8 uM by Western blot analysis; assay type: functional, cell-based; settings: dose 0.2-0.8 µM
[9] = AUClast in ICR mouse at 3 mg/kg, po measured for 24 hrs by LC-MS/MS analysis; assay type: ADME, organism-based; design: dose 3 mg/kg, time 24 hrs, route po; settings: in vivo
[10] = biological target: Ras-related protein R-Ras2 (Homo sapiens) (UniProt P62070); assay: Inhibition of RRAS2 transcriptional activation in human KMS-11 cells assessed as reduction in RRAS2 mRNA expression at 0.5 uM by qRT-PCR analysis; assay type: cell-based
KMS-11 [11] = assay: Antiproliferative activity against human KMS-11 cells assessed as inhibition of cell growth incubated for 6 days by CCK-8 assay; assay type: functional, cell-based; settings: KMS-11, 144 h
[12] = biological target: Ras-related protein R-Ras2 (Homo sapiens) (UniProt P62070); assay: Inhibition of RRAS2 transcriptional activation in human KMS-11 cells assessed as reduction in H3K36me2 level in promoter region by ChIP-qPCR analysis; assay type: cell-based
[13] = biological target: Histone-arginine methyltransferase CARM1 (Homo sapiens, UniProt Q86X55); assay: Inhibition of PRMT4 (unknown origin) by AlphaLISA assay
[14] = Half life in ICR mouse at 1 mg/kg, iv measured for 24 hrs by LC-MS/MS analysis; assay type: ADME, organism-based; settings: in vivo
[15] = AUClast in ICR mouse at 1 mg/kg, iv measured for 24 hrs by LC-MS/MS analysis; assay type: ADME, organism-based; design: dose 1 mg/kg, time 24 hrs, route iv; settings: in vivo
[16] = biological target: Neural cell adhesion molecule 1 (Homo sapiens) (UniProt P13591); assay: Inhibition of NCAM1 transcriptional activation in human KMS-11 cells assessed as reduction in H3K36me2 level in promoter region by ChIP-qPCR analysis; assay type: cell-based
KMS-11 [17] = assay: Antitumor activity against human KMS-11 cells xenografted in SCID mouse assessed as tumor growth inhibition at 150 mg/kg, po administered daily for 21 days and measured every 3 days relative to control; assay type: functional; settings: KMS-11, 504 h, time 21 day, read-out: TGI
OPM-2 = assay: Antiproliferative activity against NSD2 translocated human OPM-2 cells assessed as inhibition of cell growth incubated for 6 days by CCK-8 assay; assay type: functional, cell-based; settings: OPM-2, 144 h
KMS-11 [18] = assay: Induction of apoptosis in human KMS-11 cells assessed as early apoptotic cells at 0.2 uM incubated for 72 hrs by Annexin V-FITC/PI staining based flow cytometry analysis (reference value: 3.96%); assay type: functional
KMS-11 [19] = assay: Induction of apoptosis in human KMS-11 cells assessed as live cells at 0.8 uM incubated for 72 hrs by Annexin V-FITC/PI staining based flow cytometry analysis (reference value: 83.1%); assay type: functional
[20] = biological target: Protransforming growth factor alpha (Homo sapiens) (UniProt P01135); assay: Inhibition of TGFA transcriptional activation in human KMS-11 cells assessed as reduction in TGFA mRNA expression at 0.5 uM by qRT-PCR analysis; assay type: cell-based
KMS-11 [21] = assay: Induction of apoptosis in human KMS-11 cells assessed as dead cells at 0.2 uM incubated for 72 hrs by Annexin V-FITC/PI staining based flow cytometry analysis (reference value: 6.48%); assay type: functional
[22] = biological target: Histone-lysine N-methyltransferase NSD2 (Homo sapiens) (UniProt O96028); assay: Binding affinity to human recombinant NSD2 (941 to 1240 residues) at 200 uM by CPMG based NMR analysis
[23] = biological target: Hepatocyte growth factor receptor (Homo sapiens) (UniProt P08581); assay: Inhibition of MET transcriptional activation in human KMS-11 cells assessed as reduction in MET mRNA expression at 0.5 uM by qRT-PCR analysis; assay type: cell-based
KMS-11 [24] = assay: Induction of apoptosis in human KMS-11 cells assessed as late apoptotic cells at 0.5 uM incubated for 72 hrs by Annexin V-FITC/PI staining based flow cytometry analysis (reference value: 6.47%); assay type: functional
CMK = assay: Antiproliferative activity against human CMK cells harboring wild type NSD2 assessed as inhibition of cell growth incubated for 6 days by CCK-8 assay; assay type: functional, cell-based; settings: 144 h
KMS-11 [25] = assay: Induction of apoptosis in human KMS-11 cells assessed as late apoptotic cells at 0.2 uM incubated for 72 hrs by Annexin V-FITC/PI staining based flow cytometry analysis (reference value: 6.47%); assay type: functional
[26] = biological target: Basement membrane-specific heparan sulfate proteoglycan core protein (Homo sapiens) (UniProt P98160); assay: Inhibition of HSPG2 transcriptional activation in human KMS-11 cells assessed as reduction in H3K36me2 level in promoter region by ChIP-qPCR analysis; assay type: cell-based
[27] = biological target: Histone-lysine N-methyltransferase, H3 lysine-36 specific (Homo sapiens, UniProt Q96L73); assay: Inhibition of NSD1 (unknown origin)
[28] = Observed clearance in ICR mouse at 1 mg/kg, iv measured for 24 hrs by LC-MS/MS analysis; assay type: ADME, organism-based; settings: in vivo
Daudi = assay: Antiproliferative activity against human Daudi cells assessed as inhibition of cell growth incubated for 6 days by CCK-8 assay; assay type: functional, cell-based; settings: 144 h
[29] = biological target: Protransforming growth factor alpha (Homo sapiens) (UniProt P01135); assay: Inhibition of TGFA transcriptional activation in human KMS-11 cells assessed as reduction in H3K36me2 level in promoter region by ChIP-qPCR analysis; assay type: cell-based
[30] = Cmax in ICR mouse at 3 mg/kg, po measured for 24 hrs by LC-MS/MS analysis; assay type: ADME, organism-based; design: dose 3 mg/kg, time 24 hrs, route po; settings: in vivo
KMS-11 [31] = assay: Modulation of Hippo signaling pathway in human KMS-11 cells at 1 uM incubated for 48 hrs by RNA-Seq analysis; assay type: cell-based; settings: filed as modulator
OCI-AML2 = assay: Antiproliferative activity against human OCI-AML2 cells harboring wild type NSD2 assessed as inhibition of cell growth incubated for 6 days by CCK-8 assay; assay type: functional, cell-based; settings: OCI-AML2, 144 h
KMS-11 [32] = assay: Induction of apoptosis in human KMS-11 cells assessed as upregulation of BIM protein expression at 0.2 to 0.8 uM by Western blot analysis; assay type: functional, cell-based; settings: dose 0.2-0.8 µM

Protransforming growth factor alpha (Homo sapiens), sequence (P01135 whole entry): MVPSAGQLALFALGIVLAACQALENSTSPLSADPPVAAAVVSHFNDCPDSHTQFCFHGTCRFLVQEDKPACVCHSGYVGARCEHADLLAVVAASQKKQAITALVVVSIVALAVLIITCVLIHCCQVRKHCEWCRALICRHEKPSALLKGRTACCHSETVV
Ras-related protein R-Ras2 (Homo sapiens), sequence (P62070 whole entry): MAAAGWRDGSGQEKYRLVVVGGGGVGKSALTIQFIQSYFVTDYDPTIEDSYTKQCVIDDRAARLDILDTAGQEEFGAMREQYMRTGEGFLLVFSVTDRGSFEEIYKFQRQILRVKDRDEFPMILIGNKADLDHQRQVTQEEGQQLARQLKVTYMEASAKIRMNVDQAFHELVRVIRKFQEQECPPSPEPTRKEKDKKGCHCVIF
Hepatocyte growth factor receptor (Homo sapiens), sequence (P08581 whole entry): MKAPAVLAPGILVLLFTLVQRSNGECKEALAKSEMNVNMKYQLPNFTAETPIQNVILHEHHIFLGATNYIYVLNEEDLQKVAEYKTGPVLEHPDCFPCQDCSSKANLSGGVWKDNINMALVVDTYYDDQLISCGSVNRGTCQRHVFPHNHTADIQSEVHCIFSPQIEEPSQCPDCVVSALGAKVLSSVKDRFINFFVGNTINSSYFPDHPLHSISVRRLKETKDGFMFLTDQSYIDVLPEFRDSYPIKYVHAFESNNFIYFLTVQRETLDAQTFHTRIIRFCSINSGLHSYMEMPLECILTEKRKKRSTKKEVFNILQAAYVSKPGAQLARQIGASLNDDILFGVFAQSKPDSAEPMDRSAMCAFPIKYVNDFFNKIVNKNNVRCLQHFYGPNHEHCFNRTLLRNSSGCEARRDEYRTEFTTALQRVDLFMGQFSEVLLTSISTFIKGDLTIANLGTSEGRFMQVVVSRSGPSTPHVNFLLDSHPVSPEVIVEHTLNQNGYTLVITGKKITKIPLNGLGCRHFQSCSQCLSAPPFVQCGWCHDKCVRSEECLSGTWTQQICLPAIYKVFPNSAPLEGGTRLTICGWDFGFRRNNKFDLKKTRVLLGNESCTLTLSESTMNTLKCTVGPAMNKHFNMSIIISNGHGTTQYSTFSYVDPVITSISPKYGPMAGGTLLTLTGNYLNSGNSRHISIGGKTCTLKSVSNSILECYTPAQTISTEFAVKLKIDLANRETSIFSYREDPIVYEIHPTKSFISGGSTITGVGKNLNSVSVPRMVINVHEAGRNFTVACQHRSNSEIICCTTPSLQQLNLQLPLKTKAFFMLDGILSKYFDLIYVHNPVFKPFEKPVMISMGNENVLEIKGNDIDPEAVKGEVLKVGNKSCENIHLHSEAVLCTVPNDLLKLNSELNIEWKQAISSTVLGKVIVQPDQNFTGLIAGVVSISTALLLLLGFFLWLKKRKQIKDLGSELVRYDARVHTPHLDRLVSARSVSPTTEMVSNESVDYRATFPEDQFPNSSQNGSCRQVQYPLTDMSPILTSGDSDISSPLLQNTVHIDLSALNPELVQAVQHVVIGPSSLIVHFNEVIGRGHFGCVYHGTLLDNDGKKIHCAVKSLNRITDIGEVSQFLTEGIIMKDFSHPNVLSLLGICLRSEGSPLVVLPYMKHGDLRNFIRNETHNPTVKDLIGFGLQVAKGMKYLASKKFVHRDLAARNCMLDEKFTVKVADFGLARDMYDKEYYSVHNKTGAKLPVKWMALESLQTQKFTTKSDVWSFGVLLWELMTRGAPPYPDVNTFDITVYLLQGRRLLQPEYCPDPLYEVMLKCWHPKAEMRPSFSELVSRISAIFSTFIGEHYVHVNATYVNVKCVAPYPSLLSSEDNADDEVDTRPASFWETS
Histone-lysine N-methyltransferase, H3 lysine-36 specific, sequence (Q96L73 whole entry): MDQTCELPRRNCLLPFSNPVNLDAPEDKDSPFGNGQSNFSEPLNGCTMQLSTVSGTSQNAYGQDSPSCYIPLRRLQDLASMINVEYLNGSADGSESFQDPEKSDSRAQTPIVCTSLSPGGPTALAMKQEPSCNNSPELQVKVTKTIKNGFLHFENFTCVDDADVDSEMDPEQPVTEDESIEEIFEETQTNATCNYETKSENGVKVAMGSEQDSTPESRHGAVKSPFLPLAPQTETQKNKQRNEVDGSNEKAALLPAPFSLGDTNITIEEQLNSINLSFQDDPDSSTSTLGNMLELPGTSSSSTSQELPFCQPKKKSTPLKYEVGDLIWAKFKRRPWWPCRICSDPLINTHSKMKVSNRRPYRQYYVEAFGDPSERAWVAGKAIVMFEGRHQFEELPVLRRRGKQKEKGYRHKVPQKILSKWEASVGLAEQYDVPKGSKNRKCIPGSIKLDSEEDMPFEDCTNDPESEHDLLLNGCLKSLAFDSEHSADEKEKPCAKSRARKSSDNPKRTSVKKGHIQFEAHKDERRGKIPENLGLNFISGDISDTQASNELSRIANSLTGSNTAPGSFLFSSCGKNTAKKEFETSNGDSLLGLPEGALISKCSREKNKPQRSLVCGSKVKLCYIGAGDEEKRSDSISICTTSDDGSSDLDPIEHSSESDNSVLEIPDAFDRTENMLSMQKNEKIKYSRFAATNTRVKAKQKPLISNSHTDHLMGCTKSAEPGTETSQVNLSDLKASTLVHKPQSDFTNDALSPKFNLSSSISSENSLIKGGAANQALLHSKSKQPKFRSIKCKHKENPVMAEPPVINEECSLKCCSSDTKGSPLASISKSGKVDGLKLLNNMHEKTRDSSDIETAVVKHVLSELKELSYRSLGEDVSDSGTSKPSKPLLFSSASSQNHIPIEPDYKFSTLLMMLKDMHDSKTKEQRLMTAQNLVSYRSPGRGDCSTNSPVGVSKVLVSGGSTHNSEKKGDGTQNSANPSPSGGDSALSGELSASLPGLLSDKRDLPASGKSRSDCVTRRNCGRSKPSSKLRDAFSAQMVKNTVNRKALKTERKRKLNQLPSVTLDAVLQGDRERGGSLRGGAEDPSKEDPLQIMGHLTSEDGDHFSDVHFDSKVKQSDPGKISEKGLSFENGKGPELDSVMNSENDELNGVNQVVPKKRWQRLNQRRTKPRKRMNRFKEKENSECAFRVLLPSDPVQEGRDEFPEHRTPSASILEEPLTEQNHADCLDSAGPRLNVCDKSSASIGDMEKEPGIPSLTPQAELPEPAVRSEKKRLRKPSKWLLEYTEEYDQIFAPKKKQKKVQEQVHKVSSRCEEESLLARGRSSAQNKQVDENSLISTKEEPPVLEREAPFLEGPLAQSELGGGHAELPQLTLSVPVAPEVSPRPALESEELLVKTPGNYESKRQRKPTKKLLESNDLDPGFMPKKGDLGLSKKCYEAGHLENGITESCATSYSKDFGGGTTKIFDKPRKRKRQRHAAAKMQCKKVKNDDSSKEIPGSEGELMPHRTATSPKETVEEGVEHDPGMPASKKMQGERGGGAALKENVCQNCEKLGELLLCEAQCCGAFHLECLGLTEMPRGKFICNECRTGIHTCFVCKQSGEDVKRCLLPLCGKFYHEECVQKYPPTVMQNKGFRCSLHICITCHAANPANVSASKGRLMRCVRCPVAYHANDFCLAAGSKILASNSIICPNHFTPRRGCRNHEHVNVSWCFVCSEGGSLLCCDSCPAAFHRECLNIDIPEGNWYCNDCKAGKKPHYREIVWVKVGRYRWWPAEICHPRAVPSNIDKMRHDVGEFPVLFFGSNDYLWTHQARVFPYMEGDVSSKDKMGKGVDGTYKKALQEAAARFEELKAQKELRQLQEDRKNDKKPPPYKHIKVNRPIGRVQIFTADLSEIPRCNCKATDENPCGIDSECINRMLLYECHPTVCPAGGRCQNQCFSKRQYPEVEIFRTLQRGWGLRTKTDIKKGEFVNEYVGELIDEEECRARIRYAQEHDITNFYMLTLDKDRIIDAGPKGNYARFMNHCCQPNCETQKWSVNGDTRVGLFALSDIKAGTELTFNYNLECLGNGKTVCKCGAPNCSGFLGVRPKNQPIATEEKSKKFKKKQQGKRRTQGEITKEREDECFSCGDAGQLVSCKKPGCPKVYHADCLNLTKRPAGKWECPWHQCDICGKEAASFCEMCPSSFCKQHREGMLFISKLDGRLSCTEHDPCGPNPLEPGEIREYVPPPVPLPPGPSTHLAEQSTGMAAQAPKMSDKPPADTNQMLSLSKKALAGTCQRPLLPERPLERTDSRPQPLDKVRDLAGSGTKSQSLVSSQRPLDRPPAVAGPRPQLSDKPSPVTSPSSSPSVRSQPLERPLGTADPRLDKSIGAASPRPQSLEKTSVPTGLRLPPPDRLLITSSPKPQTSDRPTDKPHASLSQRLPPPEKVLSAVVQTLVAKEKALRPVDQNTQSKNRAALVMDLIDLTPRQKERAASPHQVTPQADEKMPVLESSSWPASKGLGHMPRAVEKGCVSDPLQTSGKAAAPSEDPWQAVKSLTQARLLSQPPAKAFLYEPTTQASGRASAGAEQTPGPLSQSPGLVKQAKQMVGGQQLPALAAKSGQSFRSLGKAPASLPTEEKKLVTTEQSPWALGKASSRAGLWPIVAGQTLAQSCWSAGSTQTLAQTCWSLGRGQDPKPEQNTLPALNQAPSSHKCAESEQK
Histone-arginine methyltransferase CARM1, sequence (Q86X55 whole entry): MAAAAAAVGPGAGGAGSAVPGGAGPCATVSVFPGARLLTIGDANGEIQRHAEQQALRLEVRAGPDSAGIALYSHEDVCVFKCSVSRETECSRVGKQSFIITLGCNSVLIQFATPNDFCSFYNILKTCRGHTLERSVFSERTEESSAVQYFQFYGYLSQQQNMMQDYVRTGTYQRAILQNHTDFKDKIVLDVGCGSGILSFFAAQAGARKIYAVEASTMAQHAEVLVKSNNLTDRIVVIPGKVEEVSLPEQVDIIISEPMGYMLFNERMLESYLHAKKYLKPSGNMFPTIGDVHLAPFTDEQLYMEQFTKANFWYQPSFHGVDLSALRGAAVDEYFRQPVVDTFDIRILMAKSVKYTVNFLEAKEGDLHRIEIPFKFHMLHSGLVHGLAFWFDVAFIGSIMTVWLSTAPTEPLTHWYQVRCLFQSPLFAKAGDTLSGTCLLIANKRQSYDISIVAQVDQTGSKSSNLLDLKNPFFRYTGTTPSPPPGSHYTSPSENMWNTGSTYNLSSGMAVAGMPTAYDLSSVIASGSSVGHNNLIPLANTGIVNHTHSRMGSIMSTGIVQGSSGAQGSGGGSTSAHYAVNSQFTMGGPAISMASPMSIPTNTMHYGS

CC#CC(=O)NC12CC(NC3=C(Cl)C(=O)c4ncccc4C3=O)(C1)C2
Papp [1]: 450 nm/s
half-life [2]: 6.71 h
inhibition [3]: Active
Activity (KMS-11 [4]): Active
Activity [5]: Non-Toxic
IC50 [6]: > 10 µM
Activity [7]: Non-Toxic
Activity (KMS-11 [8]): Active
AUC(0-t) at 24 h [9]: 42.7 µg·h/mL
inhibition [10]: Active
IC50 (KMS-11 [11]): 0.27 µM
inhibition [12]: Active
IC50 [13]: > 10 µM
half-life [14]: 8.53 h
AUC(0-t) at 24 h [15]: 5.18 µg·h/mL
inhibition [16]: Active
inhibition in vivo at 150 mg/kg (KMS-11 [17]): 58.4%
IC50 (OPM-2): 2.09 µM
Activity (KMS-11 [18]): 4.34%
Activity (KMS-11 [19]): 55%
inhibition [20]: Active
Activity (KMS-11 [21]): 6.54%
Activity [22]: Active
inhibition [23]: Active
Activity (KMS-11 [24]): 15.7%
IC50 (CMK): 2.6 µM
Activity (KMS-11 [25]): 7.79%
inhibition [26]: Active
IC50 [27]: 0.69 µM
clearance [28]: 0.228 L/h/kg
IC50 (Daudi): 12.8 µM
inhibition [29]: Active
Cmax [30]: 4.78 µg/mL
Activity (KMS-11 [31]): Active
IC50 (OCI-AML2): 2.6 µM
Activity (KMS-11 [32]): Active
